Earlier results as cited in patent US20070281881A1, “Methods And Compositions Comprising Non-Peptide Small Molecules That Solubilize Beta Amyloid Peptide Fiber” (priority 2004, published 2007).

Assays:
Aβ = Aβ (Homo sapiens, UniProt P05067); conditions: result in words, from cited studies
[1] = result in words, from cited studies

Aβ, sequence (P05067 672-713 limits assumed): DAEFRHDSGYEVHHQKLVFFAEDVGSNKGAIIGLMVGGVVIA

Row | crossing of the blood brain barrier [1] | Structure (SMILES) | binding to Aβ and effect on Aβ aggregation (Aβ)
1 | easily crosses the blood brain barrier | COc1ccc2[nH]cc(CCNC(C)=O)c2c1 [Melatonin] | binds and slows down Aβ aggregation
2 |  | CN1CCCC1c1cccnc1 (stereo not drawn) [nicotine] | binds and slows down Aβ aggregation
